Each structure is given as a SMILES string. Structures can show the parent of a compound that is named as a salt.

One test concerns the target T1, Human LOXL2 (Homo sapiens, UniProt Q9Y4K0).
T1 sequence (Q9Y4K0 26-774): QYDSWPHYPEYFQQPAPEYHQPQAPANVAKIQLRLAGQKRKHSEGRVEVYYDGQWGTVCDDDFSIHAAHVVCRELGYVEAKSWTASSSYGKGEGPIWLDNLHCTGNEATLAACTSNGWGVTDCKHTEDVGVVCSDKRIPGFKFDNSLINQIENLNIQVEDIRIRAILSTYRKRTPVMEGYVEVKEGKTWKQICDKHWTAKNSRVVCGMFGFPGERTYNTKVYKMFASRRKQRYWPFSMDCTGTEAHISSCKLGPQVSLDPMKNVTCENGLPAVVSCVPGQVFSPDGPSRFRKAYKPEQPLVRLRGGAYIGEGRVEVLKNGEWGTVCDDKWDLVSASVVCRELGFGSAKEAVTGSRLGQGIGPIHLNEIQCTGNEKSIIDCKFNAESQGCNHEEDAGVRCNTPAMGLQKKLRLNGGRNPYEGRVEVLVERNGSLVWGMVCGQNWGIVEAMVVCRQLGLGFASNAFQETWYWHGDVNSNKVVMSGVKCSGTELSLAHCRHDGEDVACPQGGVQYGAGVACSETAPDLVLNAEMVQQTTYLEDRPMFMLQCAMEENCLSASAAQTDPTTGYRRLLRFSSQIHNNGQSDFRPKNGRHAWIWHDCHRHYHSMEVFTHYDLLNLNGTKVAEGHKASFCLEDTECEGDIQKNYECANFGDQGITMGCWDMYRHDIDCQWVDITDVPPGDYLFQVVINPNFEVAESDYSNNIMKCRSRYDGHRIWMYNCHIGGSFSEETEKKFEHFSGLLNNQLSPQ
Briefly: LOXL2 amine oxidase inhibition, peroxidase-coupled Amplex Red assay. It is filed as biochemical. Conditions: 30 min preincubation at 37° C., putrescine substrate. The source says:
(§1) Method to Determine the Ability of Compounds of the Invention to Inhibit LOX and LOXL1-4 from Different Sources
(§2) Lysyl oxidase (LOX) is an extracellular copper dependent enzyme which oxidizes peptidyl lysine and hydroxylysine residues in collagen and lysine residues in elastin to produce peptidyl alpha-aminoadipic-delta-semialdehydes. […] There are five LOX family members; these are LOX, LOXL1, LOXL2, LOXL3 and LOXL4. LOX and LOXL family members can be acquired as recombinant active proteins from commercial sources, or extracted from animal tissues like bovine aorta, tendons, pig skin; or prepared from cell cultures. The inhibitory effects of the compounds of the present invention were tested against the given LOX-LOXL preparation using a high-throughput coupled colorimetric method (Holt A. and Palcic M., A peroxidase-coupled continuous absorbance plate-reader assay for flavin monoamine oxidases, copper-containing amine oxidases and related enzymes. Nat. Protoc. 2006; 1: 2498-2505). The assay was developed using either 384 or 96 well format. Briefly, in a standard 384 well plate assay 25 μL of a dilution of any of the isoenzymes and orthologues in 1.2 M urea, 50 mM sodium borate buffer (pH 8.2) were added into each well in the presence of 1 μM mofegiline and 0.5 mM pargyline (to inhibit SSAO and MAO-B and MAO-A, respectively). Test compounds were dissolved in DMSO and tested in a Concentration Response Curve (CRC) with 11 data points, typically in the micromolar or nanomolar range after incubation with the enzyme for 30 min at 37° C. Twenty five μL of a reaction mixture containing twice the KM concentration of putrescine (Sigma Aldrich, e.g. 20 mM for LOX, or 10 mM for LOXL2 and LOXL3), 120 μM Amplex Red (Sigma Aldrich) and 1.5 U/mL horseradish peroxidase (Sigma Aldrich) prepared in 1.2 M urea, 50 mM sodium borate buffer (pH 8.2) were then added to the corresponding wells. The above volumes were doubled in the case of 96 wells plate. The fluorescence (RFU) was read every 2.5 min for 30 min at a range of temperatures from 37° to 45° C., excitation 565 nm and emission 590 (Optima; BMG labtech). The slope of the kinetics for each well was calculated using MARS data analysis software (BMG labtech) and this value was used to deduce the IC50 value (Dotmatics).

A further test has as its target T2, Bovine LOX (Bos taurus, UniProt P33072).
T2 sequence (P33072 170-418): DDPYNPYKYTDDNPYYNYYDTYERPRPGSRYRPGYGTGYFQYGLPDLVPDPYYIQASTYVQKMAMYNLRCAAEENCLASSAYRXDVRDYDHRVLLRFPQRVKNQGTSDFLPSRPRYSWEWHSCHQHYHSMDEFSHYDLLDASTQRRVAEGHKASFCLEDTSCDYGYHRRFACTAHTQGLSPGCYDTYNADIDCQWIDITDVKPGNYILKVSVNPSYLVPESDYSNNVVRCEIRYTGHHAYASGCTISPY
Nature of the test: LOX amine oxidase inhibition, peroxidase-coupled Amplex Red assay. It is filed as biochemical. Conditions: 30 min preincubation at 37° C., putrescine substrate.
Source text: as §1
as §2, with “Test compounds were dissolved in DMSO and tested in a Concentration Response Curve (CRC) with 11 data points, typically in the micromolar or nanomolar range after incubation with the enzyme for 30 min at 37° C.” left out

A word on the IC50: it is the concentration at which inhibition is half-maximal. The low end stands for greater potency, the high end for weaker potency. With `Cc1nn(C/C(F)=C/CN)c(C)c1-c1cccc(S(=O)(=O)N(C)C)c1` [Compound 33, (Z)-3-(1-(4-amino-2-fluorobut-2-en-1-yl)-3,5-dimethyl-1H-pyrazol-4-yl)-N,N-dimethylbenzenesulfonamide], the concentration for half-maximal inhibition (IC50) is less than 1 µM against Human LOXL2 and less than 10 µM on Bovine LOX.
Take `Cc1c(-c2cccc(S(=O)(=O)N(C)C)c2)c(Cl)nn1C/C(F)=C/CN` [Compound 34, (Z)-3-(1-(4-amino-2-fluorobut-2-en-1-yl)-3-chloro-5-methyl-1H-pyrazol-4-yl)-N,N-dimethylbenzenesulfonamide hydrochloride]: the IC50 is less than 1 µM against Human LOXL2 and less than 10 µM against Bovine LOX.
In the case of `Cc1nn(C/C(F)=C/CN)c(Cl)c1-c1cccc(S(=O)(=O)N(C)C)c1` [Compound 35, (Z)-3-(1-(4-amino-2-fluorobut-2-en-1-yl)-5-chloro-3-methyl-1H-pyrazol-4-yl)-N,N-dimethylbenzenesulfonamide hydrochloride], the values for the IC50 at Human LOXL2 and at Bovine LOX were less than 1 µM and less than 10 µM, respectively.
As for `Cc1c(Cc2ccc(S(=O)(=O)N(C)C)c(Cl)c2)c(C(C)O)nn1C/C(F)=C/CN` (centres unmarked) [Compound 37, (Z)-4-((1-(4-amino-2-fluorobut-2-en-1-yl)-3-(1-hydroxyethyl)-5-methyl-1H-pyrazol-4-yl)methyl)-2-chloro-N,N-dimethylbenzenesulfonamide], the IC50 on Human LOXL2 is less than 1 µM; at Bovine LOX it was less than 10 µM.
In the same order, the values of `COCc1c(Cc2ccc(S(=O)(=O)N(C)C)c(Cl)c2)c(C)nn1C/C(F)=C/CN` [Compound 38, (Z)-4-((1-(4-amino-2-fluorobut-2-en-1-yl)-5-(methoxymethyl)-3-methyl-1H-pyrazol-4-yl)methyl)-2-chloro-N,N-dimethylbenzenesulfonamide] are less than 1 µM and less than 10 µM.
For `COCc1nn(C/C(F)=C/CN)c(C)c1Cc1ccc(S(=O)(=O)N(C)C)c(Cl)c1` [Compound 39, (Z)-4-((1-(4-amino-2-fluorobut-2-en-1-yl)-3-(methoxymethyl)-5-methyl-1H-pyrazol-4-yl)methyl)-2-chloro-N,N-dimethylbenzenesulfonamide], the 50% inhibitory concentration (IC50) was less than 1 µM on Human LOXL2 and less than 10 µM against Bovine LOX.
With `Cc1nn(C/C(F)=C/CN)c(C)c1Oc1ccc(S(=O)(=O)N(C)C)c(Cl)c1` [Compound 40, (Z)-4-((1-(4-amino-2-fluorobut-2-en-1-yl)-3,5-dimethyl-1H-pyrazol-4-yl)oxy)-2-chloro-N,N-dimethylbenzenesulfonamide], the IC50 against Human LOXL2 was less than 1 µM; at Bovine LOX it was less than 10 µM.
In the same order, the values of `Cc1nn(C/C(F)=C/CN)c(Cl)c1Cc1ccc(S(=O)(=O)N(C)C)c(Cl)c1` [Compound 41, (Z)-4-((1-(4-amino-2-fluorobut-2-en-1-yl)-5-chloro-3-methyl-1H-pyrazol-4-yl)methyl)-2-chloro-N,N-dimethylbenzenesulfonamide] are less than 1 µM and less than 10 µM.
In the same order, the values of `Cc1c(Cc2ccc(S(=O)(=O)N(C)C)c(Cl)c2)c(Cl)nn1C/C(F)=C/CN` [Compound 42, (Z)-4-((1-(4-amino-2-fluorobut-2-en-1-yl)-3-chloro-5-methyl-1H-pyrazol-4-yl)methyl)-2-chloro-N,N-dimethylbenzenesulfonamide] are less than 1 µM and less than 10 µM.
In the case of `Cc1nn(C/C(F)=C/CN)c(C(C)C)c1Cc1ccc(S(C)(=O)=O)nc1` [Compound 43, (Z)-3-fluoro-4-(5-isopropyl-3-methyl-4-((6-(methylsulfonyl)pyridin-3-yl)methyl)-1H-pyrazol-1-yl)but-2-en-1-amine dihydrochloride], the half-maximal inhibitory concentration (IC50) against Human LOXL2 was less than 1 µM; against Bovine LOX it was less than 10 µM.
In the case of `Cc1nn(C/C(F)=C/CN)c(C)c1Cc1ccc(S(=O)(=O)C(F)(F)F)cc1` [Compound 44, (Z)-4-(3,5-dimethyl-4-(4-((trifluoromethyl)sulfonyl)benzyl)-1H-pyrazol-1-yl)-3-fluorobut-2-en-1-amine hydrochloride], the IC50 is less than 1 µM at Human LOXL2 and less than 10 µM on Bovine LOX.
Taken in the same sequence, the figures for `CNS(=O)(=O)c1ccc(Cc2c(C)nn(C/C(F)=C/CN)c2C)cc1OC(F)(F)F` [Compound 45, (Z)-4-((1-(4-amino-2-fluorobut-2-en-1-yl)-3,5-dimethyl-1H-pyrazol-4-yl)methyl)-N-methyl-2-(trifluoromethoxy)benzenesulfonamide hydrochloride] were less than 1 µM and less than 10 µM.
Taken in the same sequence, the figures for `Cc1nn(Cc2ccc(S(=O)(=O)N(C)C)c(Cl)c2)c(C)c1C/C(F)=C/CN` [Compound 46, (Z)-4-((4-(4-amino-2-fluorobut-2-en-1-yl)-3,5-dimethyl-1H-pyrazol-1-yl)methyl)-2-chloro-N,N-dimethylbenzenesulfonamide hydrochloride] were less than 1 µM and less than 10 µM.
In the same order, the values of `Cc1nn(Cc2ccc(S(=O)(=O)N(C)C)cc2Cl)c(C)c1C/C(F)=C/CN` [Compound 47, (Z)-4-((4-(4-amino-2-fluorobut-2-en-1-yl)-3,5-dimethyl-1H-pyrazol-1-yl)methyl)-3-chloro-N,N-dimethylbenzenesulfonamide hydrochloride] are less than 1 µM and less than 10 µM.
Regarding `Cc1nn(C/C(F)=C/CN)c(C)c1Cc1ccc(NS(C)(=O)=O)cc1` [Compound 48, (Z)—N-(4-((1-(4-amino-2-fluorobut-2-en-1-yl)-3,5-dimethyl-1H-pyrazol-4-yl)methyl)phenyl)methane-sulfonamide hydrochloride], the half-maximal inhibitory concentration (IC50) at Human LOXL2 is less than 1 µM; at Bovine LOX, less than 10 µM.
As for `Cc1nn(C/C(F)=C/CN)c(C)c1Cc1ccc(S(=O)(=O)C(C)C)c(Cl)c1` [Compound 49, (Z)-4-(4-(3-chloro-4-(isopropylsulfonyl)benzyl)-3,5-dimethyl-1H-pyrazol-1-yl)-3-fluorobut-2-en-1-amine hydrochloride], the IC50 is less than 1 µM against Human LOXL2 and less than 10 µM against Bovine LOX.

The record behind these values is US20200069648A1, “HALOALLYLAMINE PYRAZOLE DERIVATIVE INHIBITORS OF LYSYL OXIDASES AND USES THEREOF” (Pharmaxis Ltd., priority 2017, published 2020).
